This passage reports EC50 results from BindingDB's records for patent US20250129104 (Biosplice Therapeutics, 2025).

SMILES strings stand for the structures.

This experiment addresses Dual specificity tyrosine-phosphorylation-regulated kinase 1A (Homo sapiens, UniProt Q13627). As to the kind of experiment: DYRK1A Kinase Assay. How it is done: Each compound was dissolved in DMSO as a 10 mM stock and used to prepare compound source plates. Serial dilution (1:3, 11-point dose-response curves from 10 μM to 0.00016 μM) and compound transfer was performed using the ECHO 550 (Labcyte, Sunnyvale, CA) into 1536-well black-walled round bottom plates (Corning).The DYRK1A kinase assay was run using the Ser/Thr 18 peptide Z-lyte assay kit according to manufacturer's instructions (Life Technologies—a Division of Thermo-Fisher). This is a non-radioactive assay using fluorescence resonance energy transfer (FRET) between coumarin and fluorescein to detect kinase activity which is represented as a ratio of coumarin emission/fluorescein emission.Briefly, recombinant DYRK1A kinase, ATP and Ser/Thr peptide 18 were prepared in 1× Kinase buffer to final concentrations of 0.25 μg/mL, 15 μM, and 4 μM respectively. The mixture was allowed to incubate with the representative compounds for one hour at room temperature. All reactions were performed in duplicate. Unphosphorylated (“0% Control”) and phosphorylated (“100% control”) forms of Ser/Thr 18 served as control reactions. Additionally, an 11-point dose-response curve of Staurosporine (1 uM top) was run to serve as a positive compound control.After incubation, Development Reagent A was diluted in Development Buffer then added to the reaction and allowed to further incubate for one hour at room temperature. The plate was read at Ex 400 Em 455 to detect the coumarin signal and Ex 400 Em 520 to measure the signal (EnVision Multilabel Plate Reader, PerkinElmer).
For orientation: EC50 means the concentration that produces a half-maximal response. Molecule `C[C@]1(O)CC[C@H](Nc2ncc3c(-c4ccn5nccc5c4)c[nH]c3n2)CC1` [US20250129104, Compound 2238] showed a concentration giving a half-maximal response (EC50) of 35.2 nM. This counts as double-digit nanomolar.
In turn, `COc1nc(N[C@H](C)C(F)(F)F)c2c(-c3ccc4nc(C)n(CC(F)F)c4n3)c[nH]c2n1` [US20250129104, Compound 2817] showed an EC50 of 5440 nM.
Take `COc1nc(N[C@H]2CC[C@@](C)(O)CC2)nc2[nH]cc(-c3ccc4ncnn4c3)c12` [US20250129104, Compound 3053]: the concentration for a half-maximal effect (EC50) was 1.4 nM.
